A value given as a limit tells only on which side of the number the result lay.

We go through 29 compounds from patent US8686184B2, “Neprilysin inhibitors” (Theravance, Inc., priority 2011, dated 2014).

For the assay, the target named is T1, human neprilysin (EC 3.4.24.11; NEP) (Homo sapiens, UniProt P08473).
T1 construct: purchased R&D Systems, Minneapolis, Minn; 1182-ZN
T1 sequence (P08473 52-750 limits assumed): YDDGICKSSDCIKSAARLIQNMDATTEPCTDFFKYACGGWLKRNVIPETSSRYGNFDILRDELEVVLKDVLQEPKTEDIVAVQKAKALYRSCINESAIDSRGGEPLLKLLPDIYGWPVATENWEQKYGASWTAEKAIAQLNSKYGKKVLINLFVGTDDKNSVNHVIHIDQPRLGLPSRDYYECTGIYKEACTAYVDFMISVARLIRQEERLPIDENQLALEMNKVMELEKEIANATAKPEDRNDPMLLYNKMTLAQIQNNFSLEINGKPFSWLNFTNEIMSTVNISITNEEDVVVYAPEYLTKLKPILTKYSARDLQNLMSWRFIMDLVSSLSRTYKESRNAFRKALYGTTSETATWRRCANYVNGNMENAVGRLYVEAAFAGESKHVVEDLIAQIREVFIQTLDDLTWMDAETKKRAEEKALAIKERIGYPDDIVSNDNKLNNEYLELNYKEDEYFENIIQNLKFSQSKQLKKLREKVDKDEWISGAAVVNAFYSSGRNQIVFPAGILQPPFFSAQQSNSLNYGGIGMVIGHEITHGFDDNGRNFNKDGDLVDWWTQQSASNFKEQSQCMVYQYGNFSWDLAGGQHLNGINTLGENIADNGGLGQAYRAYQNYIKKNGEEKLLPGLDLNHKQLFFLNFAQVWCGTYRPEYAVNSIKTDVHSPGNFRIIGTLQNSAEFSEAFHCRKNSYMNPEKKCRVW
In words: In vitro enzyme inhibition assay at human NEP (fluorogenic peptide substrate). To be noted: recombinant human NEP; 37° C.; substrate Mca-D-Arg-Arg-Leu-Dap-(Dnp)-OH 10 μM; values given as ranges; read-out: pKi values at human NEP (converted). Type of assay: biochemical. As for the experimental part:
In vitro Assays for the Quantitation of Inhibitor Potencies at Human and Rat NEP, and Human ACE
The inhibitory activities of compounds at human and rat neprilysin (EC 3.4.24.11; NEP) and human angiotensin converting enzyme (ACE) were determined using in vitro assays as described below.
Recombinant human NEP and recombinant human ACE were obtained commercially (R&D Systems, Minneapolis, Minn., catalog numbers 1182-ZN and 929-ZN, respectively). The fluorogenic peptide substrate Mca-D-Arg-Arg-Leu-Dap-(Dnp)-OH (Medeiros et al. (1997) Braz. J. Med. Biol. Res. 30:1157-62; Anaspec, San Jose, Calif.) and Abz-Phe-Arg-Lys(Dnp)-Pro-OH (Araujo et al. (2000) Biochemistry 39:8519-8525; Bachem, Torrance, Calif.) were used in the NEP and ACE assays respectively.
The assays were performed in 384-well white opaque plates at 37° C. using the fluorogenic peptide substrates at a concentration of 10 μM in Assay Buffer (NEP: 50 mM HEPES, pH 7.5, 100 mM NaCl, 0.01% polyethylene glycol sorbitan monolaurate (Tween-20), 10 μM ZnSO4; ACE: 50 mM HEPES, pH 7.5, 100 mM NaCl, 0.01% Tween-20, 1 μM ZnSO4).
Test compounds were assayed over the range of concentrations from 10 μM to 20 pM. Test compounds were added to the enzymes and incubated for 30 minute at 37° C. prior to initiating the reaction by the addition of substrate. Reactions were terminated after 20 minutes of incubation at 37° C. by the addition of glacial acetic acid to a final concentration of 3.6% (v/v).
Plates were read on a fluorometer with excitation and emission wavelengths set to 320 nm and 405 nm, respectively Inhibition constants were obtained by nonlinear regression of the data using the equation (GraphPad Software, Inc., San Diego, Calif.): v=v0/[1+(I/K′)] where v is the reaction rate, v0 is the uninhibited reaction rate, I is the inhibitor concentration and K′ is the apparent inhibition constant.
Compounds of the invention were tested in this assay and found to have pKi values at human NEP as follows.
With `CCc1ccc(C(=O)N[C@H](Cc2ccccc2)[C@@H](O)C(=O)O)cc1NC(=O)Nc1sccc1C(=O)O` [Example 10-76, 2-{3-[5-((1R,2R)-1-Benzyl-2-carboxy-2-hydroxy-ethylcarbamoyl)-2-ethyl-phenyl]-ureido}-thiophene-3-carb oxylic acid], the Ki is 12.6 to 100 nM.

For `O=C(N[C@H](Cc1ccccc1)[C@@H](O)C(=O)O)c1cc(Cl)cc(-c2ccccc2C(=O)O)c1` [Example 10-26, 3′-((1R,2R)-1-Benzyl-2-carboxy-2-hydroxy-ethylcarbamoyl)-5′-chloro-biphenyl-2-carboxylic acid], the Ki is 1.26 to 10 nM.

Consider `CC(C)Cc1ccc(C(=O)N[C@H](Cc2ccccc2)[C@@H](O)C(=O)O)cc1` [Example 10-36, (2R,3R)-2-Hydroxy-3-(4-isobutyl-benzoylamino)-4-phenyl-butyric acid], for which the Ki is 12.6 to 100 nM.

`Cc1nn(-c2ccc(C(=O)N[C@H](Cc3ccccc3)[C@@H](O)C(=O)O)cc2)c(C)c1Cl` [Example 10-1, (2R,3R)-3-[4-(4-Chloro-3,5-dimethyl-pyrazol-1-yl)-benzoylamino]-2-hydroxy-4-phenyl-butyric acid]: the Ki was 12.6 to 100 nM.

As for `Cc1ccc(C(=O)N[C@@H](CC(=O)O)Cc2ccccc2Cl)cc1-c1ccccc1C(=O)O` [Example 12, 5′-[(R)-2-Carboxy-1-(2-chloro-benzyl)-ethylcarbamoyl]-2′-methyl-biphenyl-2-carboxylic Acid], the Ki is 1.26 to 10 nM.

`CC1=NN(c2cccc(C(=O)N[C@@H](CC(=O)O)Cc3ccccc3Cl)c2)C(=O)C1` [Example 13-8, (R)-4-(2-Chlorophenyl)-3-[3-(3-methyl-5-oxo-4,5-dihydro-pyrazol-1-yl)-benzoylamino]-butyric acid]: the Ki was 12.6 to 100 nM.

Turning to `CCNC(=O)Nc1cc(C(=O)N[C@H](Cc2ccccc2)[C@@H](O)C(=O)O)ccc1CC` [Example 10-72, (2R,3R)-3-[4-Ethyl-3-(3-ethyl-ureido)-benzoylamino]-2-hydroxy-4-phenyl-butyric acid], the Ki was 12.6 to 100 nM.

For `O=C(N[C@H](Cc1ccccc1)[C@@H](O)C(=O)O)c1ccc(-c2ccccc2)c(C(=O)O)c1` [Example 10-28, 4-((1R,2R)-1-Benzyl-2-carboxy-2-hydroxy-ethylcarbamoyl)-biphenyl-2-carboxylic acid], the Ki was 12.6 to 100 nM.

With `CC1=NN(c2ccc(C(=O)N[C@@H](CC(=O)O)Cc3ccccc3Cl)cc2Cl)C(=O)C1` [Example 13-5, (R)-3-[3-Chloro-4-(3-methyl-5-oxo-4,5-dihydro-pyrazol-1-yl)-benzoylamino]-4-(2-chloro-phenyl)-butyric acid], the Ki was 12.6 to 100 nM.

For `Cc1ccc(C(=O)N[C@H](Cc2ccccc2)[C@@H](O)C(=O)O)cc1-c1cccc(C(=O)O)c1` [Example 10-62, 5′-((1R,2R)-1-Benzyl-2-carboxy-2-hydroxy-ethylcarbamoyl)-2′-methyl-biphenyl-3-carboxylic acid], the Ki is 12.6 to 100 nM.

Consider `CC(C)c1ccc(C(=O)N[C@H](Cc2ccccc2)[C@@H](O)C(=O)O)cc1` [Example 10-34, (2R,3R)-2-Hydroxy-3-(4-isopropyl-benzoylamino)-4-phenyl-butyric acid], for which the Ki is 12.6 to 100 nM.

In the case of `O=C(O)Cc1ccccc1-c1ccc(C(=O)N[C@H](Cc2ccccc2)[C@@H](O)C(=O)O)cc1` [Example 10-48, (2R,3R)-3-[(2′-Carboxymethyl-biphenyl-4-carbonyl)-amino]-2-hydroxy-4-phenyl-butyric acid], the Ki is 1.26 to 10 nM.

As to `CC1=NN(c2ccc(C(=O)N[C@@H](CC(=O)O)Cc3ccccc3Cl)cc2)C(=O)C1` [Example 13-6, (R)-4-(2-Chlorophenyl)-3-[4-(3-methyl-5-oxo-4,5-dihydro-pyrazol-1-yl)-benzoylamino]-butyric acid], the Ki was 12.6 to 100 nM.

As for `Cc1ccc(C(=O)N[C@H](Cc2ccccc2Cl)[C@@H](O)C(=O)O)cc1-c1ccccc1C(=O)O` [Example 6-6, 5′-[(1R,2R)-2-Carboxy-1-(2-chlorobenzyl)-2-hydroxy-ethylcarbamoyl]-2′-methyl-biphenyl-2-carboxylic acid], the Ki is ≤ 1 nM.

Consider `Cc1cc(C)n(-c2ccc(C(=O)N[C@H](Cc3ccccc3)[C@@H](O)C(=O)O)cc2)n1` [Example 10-4, (2R,3R)-3-[4-(3,5-Dimethyl-pyrazol-1-yl)-benzoylamino]-2-hydroxy-4-phenyl-butyric acid], for which the Ki is 12.6 to 100 nM.

As to `O=C(N[C@H](Cc1ccccc1)[C@@H](O)C(=O)O)c1cccc(-c2cc(F)ccc2C(=O)O)c1` [Example 10-14, 3′-((1R,2R)-1-Benzyl-2-carboxy-2-hydroxy-ethylcarbamoyl)-5-fluoro-biphenyl-2-carboxylic acid], the Ki is 12.6 to 100 nM.

Regarding `CC1=NN(c2ccc(C(=O)N[C@H](Cc3ccccc3)[C@@H](O)C(=O)O)cc2)C(=O)C1` [Example 10-41, (2R,3R)-2-Hydroxy-3-[4-(3-methyl-5-oxo-4,5-dihydro-pyrazol-1-yl)-benzoylamino]-4-phenyl-butyric acid], the Ki is 12.6 to 100 nM.

As to `O=C(O)Cc1ccccc1-c1ccc(C(=O)N[C@@H](CC(=O)O)Cc2ccccc2Cl)cc1` [Example 13-4, (R)-3-[(2′-Carboxymethyl-biphenyl-4-carbonyl)-amino]-4-(2-chloro-phenyl)-butyric acid], the Ki is 12.6 to 100 nM.

`O=C(O)Cc1ccc(-c2ccc(C(=O)N[C@H](Cc3ccccc3)[C@@H](O)C(=O)O)cc2)cc1` [Example 10-50, (2R,3R)-3-[(4′-Carboxymethyl-biphenyl-4-carbonyl)-amino]-2-hydroxy-4-phenyl-butyric acid]: the Ki is 12.6 to 100 nM.

As for `O=C(N[C@H](Cc1ccccc1)[C@@H](O)C(=O)O)c1ccc(Cl)c(-c2ccccc2C(=O)O)c1` [Example 10-22, 5′-((1R,2R)-1-Benzyl-2-carboxy-2-hydroxy-ethylcarbamoyl)-2′-chloro-biphenyl-2-carboxylic acid], the Ki is 1.26 to 10 nM.

Consider `Cc1cc(C(=O)N[C@H](Cc2ccccc2)[C@@H](O)C(=O)O)ccc1-n1cccc1` [Example 10-58, (2R,3R)-2-Hydroxy-3-(3-methyl-4-pyrrol-1-yl-benzoylamino)-4-phenyl-butyric acid], for which the Ki is 12.6 to 100 nM.

As for `O=C(N[C@H](Cc1ccccc1)[C@@H](O)C(=O)O)c1ccc(Cn2ccnc2)cc1` [Example 10-46, (2R,3R)-2-Hydroxy-3-(4-imidazol-1-ylmethyl-benzoylamino)-4-phenyl-butyric acid], the Ki was 12.6 to 100 nM.

In the case of `Cc1cc(C(=O)N[C@H](Cc2ccccc2)[C@@H](O)C(=O)O)ccc1-n1c(C)cc(C=O)c1C` [Example 10-57, (2R,3R)-3-[4-(3-Formyl-2,5-dimethyl-pyrrol-1-yl)-3-methyl-benzoylamino]-2-hydroxy-4-phenyl-butyric acid], the Ki was 12.6 to 100 nM.

As to `O=C(N[C@H](Cc1ccccc1Cl)[C@@H](O)C(=O)O)c1ccc(N2N=C(C(F)(F)F)CC2=O)cc1` [Example 6-14, (2R,3R)-4-(2-Chlorophenyl)-2-hydroxy-3-[4-(5-oxo-3-trifluoromethyl-4,5-dihydro-pyrazol-1-yl)-benzoylamino]-butyric acid], the Ki is 12.6 to 100 nM.

With `CCc1ccc(C(=O)N[C@H](Cc2ccccc2)[C@@H](O)C(=O)O)cc1` [Example 10-32, (2R,3R)-3-(4-Ethyl-benzoylamino)-2-hydroxy-4-phenyl-butyric acid], the Ki was 12.6 to 100 nM.

For the compound `CCCCOC(=O)Nc1cc(C(=O)N[C@H](Cc2ccccc2)[C@@H](O)C(=O)O)ccc1CC` [Example 10-79, (2R,3R)-3-(3-Butoxycarbonylamino-4-ethyl-benzoylamino)-2-hydroxy-4-phenyl-butyric acid], the Ki is 12.6 to 100 nM.

As to `O=C(N[C@H](Cc1ccccc1)[C@@H](O)C(=O)O)c1cccc(-c2ncccc2C(=O)O)c1` [Example 10-63, 2-[3-((1R,2R)-1-Benzyl-2-carboxy-2-hydroxy-ethylcarbamoyl)-phenyl]-nicotinic acid], the Ki is 1.26 to 10 nM.

`O=C(N[C@H](Cc1ccccc1)[C@@H](O)C(=O)O)c1ccc(C2CCCCC2)cc1` [Example 10-40, (2R,3R)-3-(4-Cyclohexyl-benzoylamino)-2-hydroxy-4-phenyl-butyric acid]: the Ki was 12.6 to 100 nM.

As for `O=C(O)C[C@@H](Cc1ccccc1Cl)NC(=O)CCCc1ccccc1C(=O)O` [Example 11, 2-{3-[(R)-1-Carboxymethyl-2-(2-chlorophenyl)-ethylcarbamoyl]-propyl}-benzoic Acid], the Ki was 1.26 to 10 nM.
